From patent US8207172B2 (Bayer Intellectual Property GmbH, priority 2004, dated 2012) come the findings set out here.

Test [1] has as its system BT474 (human breast carcinoma). Put plainly: In vitro tumor cell proliferation assay (Cell Titer-Glo luminescent cell viability), BT474. The class given is cell-based. The note with it: BT-474, 72 h, BT474 cells, 72 hours of drug exposure, ATP luminescence readout, read-out: IC50, anti-proliferative activity (inhibition of cell proliferation). The gist of the method:
(§1)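 IC50 values reflect ATP-based luminescence (CellTiter-Glo) after 72 h compound exposure at 37°C. Both lines, A431 and BT474, were plated in RPMI with 10% FBS and received serial dilutions ranging from 100 μM to 64 pM final at 0.1% DMSO.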

Test [2] relates to A431 cells (human epidermoid carcinoma). Put plainly: In vitro tumor cell proliferation assay (Cell Titer-Glo luminescent cell viability), A431. The class given is cell-based. The note with it: A-431, 72 h, 72 hours of drug exposure, ATP luminescence readout, read-out: IC50, anti-proliferative activity (inhibition of cell proliferation). In outline:
as §1

As to `O=C(Cn1cc2c(n1)CCc1c-2sc2ncnc(Nc3ccc(OCc4cccc(F)c4)c(Cl)c3)c12)NCCN1CCOCC1` [Example 189, 2-[6-({3-chloro-4-[(3-fluorobenzyl)oxy]phenyl}amino)-4,5-dihydro-2H-pyrimido[5′,4′:4,5]thieno[2,3-e]indazol-2-yl]-N-(2-morpholin-4-ylethyl)acetamide], the results for the IC50 in test [1] and in test [2] were at most 1 µM and at most 50 µM, respectively.
For the compound `CCOC(=O)Cn1ncc2c1CCc1c-2sc2ncnc(Nc3ccc(OCc4cccc(F)c4)c(Cl)c3)c12` [Example 190, ethyl [6-({3-chloro-4-[(3-fluorobenzyl)oxy]phenyl}amino)-4,5-dihydro-3H-pyrimido[5′,4′:4,5]thieno[2,3-e]indazol-3-yl]acetate], the IC50 was at most 1 µM in test [1] and at most 50 µM in test [2].
The corresponding values for `O=C(O)Cn1ncc2c1CCc1c-2sc2ncnc(Nc3ccc(OCc4cccc(F)c4)c(Cl)c3)c12` [Example 191, [6-({3-chloro-4-[(3-fluorobenzyl)oxy]phenyl}amino)-4,5-dihydro-3H-pyrimido[5′,4′:4,5]thieno[2,3-e]indazol-3-yl]acetic acid] are at most 50 µM and at most 50 µM.
Consider `CN(C)c1ccc(NC(=O)Cn2ncc3c2CCc2c-3sc3ncnc(Nc4ccc(OCc5cccc(F)c5)c(Cl)c4)c23)cc1` [Example 192, 2-[6-({3-chloro-4-[(3-fluorobenzyl)oxy]phenyl}amino)-4,5-dihydro-3H-pyrimido[5′,4′:4,5]thieno[2,3-e]indazol-3-yl]-N-[4-(dimethylamino)phenyl]acetamide], for which the IC50 was at most 5 µM in test [1] and at most 50 µM in test [2].
The corresponding values for `CN(C)CCNC(=O)Cn1ncc2c1CCc1c-2sc2ncnc(Nc3ccc(OCc4cccc(F)c4)c(Cl)c3)c12` [Example 193, 2-[6-({3-chloro-4-[(3-fluorobenzyl)oxy]phenyl}amino)-4,5-dihydro-3H-pyrimido[5′,4′:4,5]thieno[2,3-e]indazol-3-yl]-N-[2-(dimethylamino)ethyl]acetamide] are at most 1 µM and at most 50 µM.
As for `O=C(Cn1ncc2c1CCc1c-2sc2ncnc(Nc3ccc(OCc4cccc(F)c4)c(Cl)c3)c12)Nc1ccccn1` [Example 195, 2-[6-({3-chloro-4-[(3-fluorobenzyl)oxy]phenyl}amino)-4,5-dihydro-3H-pyrimido[5′,4′:4,5]thieno[2,3-e]indazol-3-yl]-N-pyridin-2-ylacetamide], the IC50 in test [1] was at most 1 µM; in test [2], at most 50 µM.
Taken in the same sequence, the figures for `CNC(=O)Cn1ncc2c1CCc1c-2sc2ncnc(Nc3ccc(OCc4cccc(F)c4)c(Cl)c3)c12` [Example 196, 2-[6-({3-chloro-4-[(3-fluorobenzyl)oxy]phenyl}amino)-4,5-dihydro-3H-pyrimido[5′,4′:4,5]thieno[2,3-e]indazol-3-yl]-N-methylacetamide] were at most 1 µM and at most 50 µM.
Taken in the same sequence, the figures for `O=C(Cn1ncc2c1CCc1c-2sc2ncnc(Nc3ccc(OCc4cccc(F)c4)c(Cl)c3)c12)NCCN1CCOCC1` [Example 197, 2-[6-({3-chloro-4-[(3-fluorobenzyl)oxy]phenyl}amino)-4,5-dihydro-3H-pyrimido[5′,4′:4,5]thieno[2,3-e]indazol-3-yl]-N-(2-morpholin-4-ylethyl)acetamide] were at most 1 µM and at most 50 µM.
Taken in the same sequence, the figures for `CCOC(=O)N1CCN(C(=O)Cn2ncc3c2CCc2c-3sc3ncnc(Nc4ccc(OCc5cccc(F)c5)c(Cl)c4)c23)CC1` [Example 198, ethyl 4-{[6-({3-chloro-4-[(3-fluorobenzyl)oxy]phenyl}amino)-4,5-dihydro-3H-pyrimido[5′,4′:4,5]thieno[2,3-e]indazol-3-yl]acetyl}piperazine-1-carboxylate] were at most 1 µM and at most 50 µM.
With `O=C(Cn1ncc2c1CCc1c-2sc2ncnc(Nc3ccc(OCc4cccc(F)c4)c(Cl)c3)c12)N1CCOCC1` [Example 199, N-{3-chloro-4-[(3-fluorobenzyl)oxy]phenyl}-3-(2-morpholin-4-yl-2-oxoethyl)-4,5-dihydro-3H-pyrimido[5′,4′:4,5]thieno[2,3-e]indazol-6-amine], the results for the IC50 in test [1] and in test [2] were at most 1 µM and at most 50 µM, respectively.
As for `O=C(Cn1ncc2c1CCc1c-2sc2ncnc(Nc3ccc(OCc4cccc(F)c4)c(Cl)c3)c12)NCCN1CCNCC1` [Example 200, 2-[6-({3-chloro-4-[(3-fluorobenzyl)oxy]phenyl}amino)-4,5-dihydro-3H-pyrimido[5′,4′:4,5]thieno[2,3-e]indazol-3-yl]-N-(2-piperazin-1-ylethyl)acetamide], the IC50 in test [1] was at most 1 µM; in test [2], at most 50 µM.
Taken in the same sequence, the figures for `O=C(Cn1ncc2c1CCc1c-2sc2ncnc(Nc3ccc(OCc4cccc(F)c4)c(Cl)c3)c12)N1CCNCC1` [Example 201, N-{3-chloro-4-[(3-fluorobenzyl)oxy]phenyl}-3-(2-oxo-2-piperazin-1-ylethyl)-4,5-dihydro-3H-pyrimido[5′,4′:4,5]thieno[2,3-e]indazol-6-amine] were at most 1 µM and at most 5 µM.
As for `CCN1CCN(C(=O)Cn2ncc3c2CCc2c-3sc3ncnc(Nc4ccc(OCc5cccc(F)c5)c(Cl)c4)c23)CC1` [Example 202, N-{3-chloro-4-[(3-fluorobenzyl)oxy]phenyl}-3-[2-(4-ethylpiperazin-1-yl)-2-oxoethyl]-4,5-dihydro-3H-pyrimido[5′,4′:4,5]thieno[2,3-e]indazol-6-amine], the IC50 in test [1] is at most 1 µM; in test [2], at most 5 µM.
Taken in the same sequence, the figures for `COCCN1CCN(C(=O)Cn2ncc3c2CCc2c-3sc3ncnc(Nc4ccc(OCc5cccc(F)c5)c(Cl)c4)c23)CC1` [Example 203, N-{3-chloro-4-[(3-fluorobenzyl)oxy]phenyl}-3-{2-[4-(2-methoxyethyl)piperazin-1-yl]-2-oxoethyl}-4,5-dihydro-3H-pyrimido[5′,4′:4,5]thieno[2,3-e]indazol-6-amine] were at most 1 µM and at most 50 µM.
In the case of `CS(=O)(=O)CCNC(=O)Cn1ncc2c1CCc1c-2sc2ncnc(Nc3ccc(OCc4cccc(F)c4)c(Cl)c3)c12` [Example 204, 2-[6-({3-chloro-4-[(3-fluorobenzyl)oxy]phenyl}amino)-4,5-dihydro-3H-pyrimido[5′,4′:4,5]thieno[2,3-e]indazol-3-yl]-N-[2-(methylsulfonyl)ethyl]acetamide], the IC50 in test [1] is at most 1 µM; in test [2], at most 50 µM.
The corresponding values for `CN1CCN(C(=O)Cn2ncc3c2CCc2c-3sc3ncnc(Nc4ccc(OCc5cccc(F)c5)c(Cl)c4)c23)CC1` [Example 205, N-{3-chloro-4-[(3-fluorobenzyl)oxy]phenyl}-3-[2-(4-methylpiperazin-1-yl)-2-oxoethyl]-4,5-dihydro-3H-pyrimido[5′,4′:4,5]thieno[2,3-e]indazol-6-amine] are at most 1 µM and at most 5 µM.
The corresponding values for `O=C(Cn1ncc2c1CCc1c-2sc2ncnc(Nc3ccc(OCc4cccc(F)c4)c(Cl)c3)c12)N1CC[C@@H](O)C1` [Example 206, (3R)-1-{[6-({3-chloro-4-[(3-fluorobenzyl)oxy]phenyl}amino)-4,5-dihydro-3H-pyrimido[5′,4′:4,5]thieno[2,3-e]indazol-3-yl]acetyl}pyrrolidin-3-ol] are at most 1 µM and at most 5 µM.
The corresponding values for `COCCNC(=O)Cn1ncc2c1CCc1c-2sc2ncnc(Nc3ccc(OCc4cccc(F)c4)c(Cl)c3)c12` [Example 207, 2-[6-({3-chloro-4-[(3-fluorobenzyl)oxy]phenyl}amino)-4,5-dihydro-3H-pyrimido[5′,4′:4,5]thieno[2,3-e]indazol-3-yl]-N-(2-methoxyethyl)acetamide] are at most 1 µM and at most 50 µM.
As to `O=C(Cn1ncc2c1CCc1c-2sc2ncnc(Nc3ccc(OCc4cccc(F)c4)c(Cl)c3)c12)NCCO` [Example 209, 2-[6-({3-chloro-4-[(3-fluorobenzyl)oxy]phenyl}amino)-4,5-dihydro-3H-pyrimido[5′,4′:4,5]thieno[2,3-e]indazol-3-yl]-N-(2-hydroxyethyl]acetamide], the values for the IC50 in test [1] and in test [2] were at most 1 µM and at most 50 µM, respectively.
`O=C(Cn1ncc2c1CCc1c-2sc2ncnc(Nc3ccc(OCc4cccc(F)c4)c(Cl)c3)c12)Nc1cccnc1` [Example 210, 2-[6-({3-chloro-4-[(3-fluorobenzyl)oxy]phenyl}amino)-4,5-dihydro-3H-pyrimido[5′,4′:4,5]thieno[2,3-e]indazol-3-yl]-N-pyridin-3-ylacetamide]: the IC50 is at most 1 µM in test [1] and at most 5 µM in test [2].
The corresponding values for `O=C(Cn1ncc2c1CCc1c-2sc2ncnc(Nc3ccc(OCc4cccc(F)c4)c(Cl)c3)c12)N(CCO)CCO` [Example 212, 2-[6-({3-chloro-4-[(3-fluorobenzyl)oxy]phenyl}amino)-4,5-dihydro-3H-pyrimido[5′,4′:4,5]thieno[2,3-e]indazol-3-yl]-N,N-bis(2-hydroxyethyl)acetamide] are at most 1 µM and at most 50 µM.
The corresponding values for `O=C(Cn1ncc2c1CCc1c-2sc2ncnc(Nc3ccc(OCc4cccc(F)c4)c(Cl)c3)c12)N1CCC(O)CC1` [Example 213, 1-{[6-({3-chloro-4-[(3-fluorobenzyl)oxy]phenyl}amino)-4,5-dihydro-3H-pyrimido[5′,4′:4,5]thieno[2,3-e]indazol-3-yl]acetyl}piperidin-4-ol] are at most 1 µM and at most 5 µM.
Taken in the same sequence, the figures for `O=C(Cn1ncc2c1CCc1c-2sc2ncnc(Nc3ccc(OCc4cccc(F)c4)c(Cl)c3)c12)N1CC[C@H](O)C1` [Example 214, 1-{[6-({3-chloro-4-{(3-fluorobenzyl)oxy]phenyl}amino)-4,5-dihydro-3H-pyrimido[5′,4′:4,5]thieno[2,3-e]indazol-3-yl]acetyl}pyrrolidin-3-ol] were at most 1 µM and at most 5 µM.
